Laboratory results published in article PMC8199216 (International Journal of Molecular Sciences, 2021).
“And” between values parts separate entries of the source, which are not always exact repeats. Equal entries are not always repeated.

Key:
GLP (982–1266) = target: T1, GLP (982–1266) (Homo sapiens, UniProt Q9H9B1); experiment: Coupled enzyme fluorescent histone methyltransferase assay (SAM-SAH conversion); assay type: biochemical; conditions: fluorescence based coupled enzyme assay
T1 construct: GLP (982–1266) were cloned, expressed, and purified; made in house
T1 sequence (Q9H9B1 982-1266): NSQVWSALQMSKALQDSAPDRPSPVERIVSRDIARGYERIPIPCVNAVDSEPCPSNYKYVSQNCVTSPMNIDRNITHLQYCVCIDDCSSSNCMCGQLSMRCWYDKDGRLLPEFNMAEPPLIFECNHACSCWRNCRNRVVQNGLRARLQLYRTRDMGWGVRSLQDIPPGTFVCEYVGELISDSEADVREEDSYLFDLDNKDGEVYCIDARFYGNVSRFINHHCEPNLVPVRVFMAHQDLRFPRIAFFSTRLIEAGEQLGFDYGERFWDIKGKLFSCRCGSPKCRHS
Procedure: (§1) Full length of S. solfataricus S-adenosylhomocysteine hydrolase (SAHH) was cloned, expressed, and purified using the published protocol.
(§2) The assay was performed using the previously published protocol. Tested compounds were pre-dissolved in assay buffer (20 mM HEPES pH 7.5, 50 mM NaCl, 0.01% Triton X-100, 3 mM MgCl2, 0.1 mg/mL BSA) with 5 μM of purified SAHH, 1 unit of ADA, 10 μM of H3, and 5 nM of either G9a or GLP as 30 μL in black 96-well plate. […] After incubation for 10 min at room temperature, thiol fluorescent probe IV (20 μM, 50 μL) was added.

Human G9a (913–1193) = target: T2, Human G9a (913–1193) (Homo sapiens, UniProt Q96KQ7); experiment: as above; assay type: biochemical; conditions: fluorescence based coupled enzyme assay
T2 construct: Catalytic domains of Human G9a (913–1193); made in house
T2 sequence (Q96KQ7 913-1193): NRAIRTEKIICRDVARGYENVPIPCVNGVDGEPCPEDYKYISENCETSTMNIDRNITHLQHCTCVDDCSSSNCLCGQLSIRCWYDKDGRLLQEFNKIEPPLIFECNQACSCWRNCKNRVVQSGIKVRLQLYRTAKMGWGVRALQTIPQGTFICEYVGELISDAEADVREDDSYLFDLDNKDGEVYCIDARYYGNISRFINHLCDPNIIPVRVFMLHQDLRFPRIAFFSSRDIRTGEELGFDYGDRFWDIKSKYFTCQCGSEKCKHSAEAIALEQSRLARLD
Procedure: as §1, §2

His-Spindlin1(49–262) [1] = target: T3, His-Spindlin1(49–262) (Homo sapiens, UniProt Q9Y657); experiment: biochemical
Procedure: (§3) To investigate the influence of these modifications on the Spindlin1 inhibitory activity, the fluorescence polarization assay established earlier [31] was used to determine the potency of the compounds.
(§4) Fluorescence polarization assays were carried out as described before [31]. […] For the controls, a buffer solution with the same DMSO concentration as the inhibitor solutions was added to the plate instead of the inhibitor solution, the negative control contained the H3(1–14)K4me3-Fluorescein without Spindlin1. The blank control contained buffer solution with DMSO. Every inhibitor concentration and the controls were done in triplicates. Fluorescence polarization values (mP) were determined after blank correction as IS−G×IP/IS+G×IP×1000 , where G is a device-specific factor and IS and IP are the fluorescence intensities of the S and P plane, respectively. […] Curve fitting was carried out using GraphPad Prism 7, applying a non-linear sigmoidal fit with a variable slope.

His-Spindlin1(49–262) [2] = target: T3, His-Spindlin1(49–262); conditions: fluorescence polarization
Procedure: as §3, §4

[3] = read-out: Spin1 inhibition in percentage at specified concentration

T3 sequence (Q9Y657 49-262): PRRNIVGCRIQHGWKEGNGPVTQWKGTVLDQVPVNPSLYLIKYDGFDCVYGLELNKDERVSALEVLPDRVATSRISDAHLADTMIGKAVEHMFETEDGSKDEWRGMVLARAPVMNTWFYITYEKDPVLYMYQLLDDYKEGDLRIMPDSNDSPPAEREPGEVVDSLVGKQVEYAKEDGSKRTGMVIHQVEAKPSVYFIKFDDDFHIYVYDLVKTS

Structure (SMILES)	IC50 (Spindlin1 (Spin1))	IC50 (G9a)	IC50 (GLP)	IC50 (GLP (982–1266)) [µM]	IC50 (Human G9a (913–1193)) [nM]	IC50 (His-Spindlin1(49–262) [1]) [nM]	Spindlin1 inhibitory activity (in words) (His-Spindlin1(49–262) [2])	also measured
COc1cc2c(cc1OCCCN1CCC(O)C1)N=C(N)C21CCCC1 (stereo not shown)	(S): 478 ± 34							
COc1cc2c(cc1OCCCN1CCC(O)C1)N=C(N)C21CCCC1 (racemic)	(rac): 584 ± 31	(rac): 2321	(rac): 4432					
COc1cc2c(cc1OCCCN1CCC(O)C1)N=C(N)C21CCCC1 (racemic) [1q (rac)]				4.43	2320	584		
CCOc1c(OCCCN2CCCC2)cc2c(c1OCC)C1(CCCC1)C(N)=N2 [1a]							weakly active	% inhibition at 25 μM (Spindlin1 (Spin1)): 70% @ 25 μM [d]; inhibition at 25 µM (His-Spindlin1(49–262) [1]; [3]): 70%
COc1cc2c(cc1OCCCN1CCC(=O)C1)N=C(N)C21CCCC1 [1b]							weakly active	% inhibition at 100 μM (Spindlin1 (Spin1)): 81% @ 100 μM [d]; inhibition at 100 µM (His-Spindlin1(49–262) [1]; [3]): 81%
COc1cc2c(cc1OCCCCN1CCCC1)N=C(N)C21CCCCC1 [1c]		> 20000 nM	> 20 µM	> 20	> 20000		inactive	% inhibition at 50 μM (Spindlin1 (Spin1)): 42% @ 50 μM [d]; inhibition at 50 µM (His-Spindlin1(49–262) [1]; [3]): 42%
COc1cc2c(cc1OCCN1CCCC1)N=C(N)C21CCCCC1 [1d]							Inactive	
COc1cc2c(cc1OCCN1CCCC1)N=C(N)C21CCC1 [1e]							Inactive	
COc1cc2c(cc1OCCCN1CCCC1)N=C(N)C21CCCC1 [1f]		431 nM	0.334 µM	0.334	431			
CCOc1cc2c(cc1OCCCN1CCCC1)N=C(N)C21CCCC1 [1g]		243 nM	2.97 µM	2.97	243			
COc1c(OCCCN2CCCC2)cc2c(c1C#N)C1(CCCC1)C(N)=N2 [1h]	3900 nM					3900 ± 700		
COc1c(OCCCN2CCCC2)cc2c(c1Cl)C1(CCCC1)C(N)=N2 [1i]	1600 nM	> 20000 nM	> 20 µM	> 20	> 20000	1600 ± 200		
COc1c(OCCCN2CCCC2)cc2c(c1OC)C1(CCCC1)C(N)=N2 [1j]	2500 nM					2500 ± 200		
COc1c(OCCCN2CCCC2)cc2c(c1C(C)=O)C1(CCCC1)C(N)=N2 [1k]	11800 ± 210 nM					11800		
CCOc1cc2c(cc1OCCCN1CCCC1)N=C(N)C21CCCCC1 [1l]	567 nM					567 ± 35		
CC(C)Oc1cc2c(cc1OCCCN1CCCC1)N=C(N)C21CCC1 [1m]	3300 nM					3300 ± 470	micromolar range	
COc1cc2c(cc1OCCCN1CCCC1)N=C(N)C21CCCCC1 [1n]	255 nM	779 nM	0.527 µM	0.527	779	255 ± 35		
CCC1(CC)C(N)=Nc2cc(OCCCN3CCCC3)c(OC)cc21 [1o]	1210 nM and 1210 ± 90 nM	> 20000 nM	> 20 µM	> 20	> 20000	1210 ± 90		
COc1cc2c(cc1OCCCN1CCCC1)N=C(N)C2(C)C [1p]	157 nM	759 nM	0.47 µM	0.47	759	157 ± 12		
COc1cc2c(cc1OCCCN1CC[C@@H](O)C1)N=C(N)C21CCCC1 [1q (R)]	(R): 470 ± 27					470		
COc1cc2c(cc1OCCCN1CC[C@H](O)C1)N=C(N)C21CCCC1 [1q (S)]						478		
CCC1(C)C(N)=Nc2cc(OCCCN3CCCC3)c(OC)cc21 (stereo not shown) [1r]	408 nM	3190 nM	3.19 µM	3.18	3190	408 ± 35		
CCC1(C)C(N)=Nc2cc(OCCCN3Cc4ccccc4C3)c(OC)cc21 (stereo not shown) [1s]	360 nM	> 20000 nM	> 20 µM	> 20	> 20000	360 ± 20	nanomolar range	
CCC1(C)C(N)=Nc2cc(OCCCN3CC[C@@H](C)C3)c(OC)cc21 (stereo partly shown) [1t]	467 nM	> 20000 nM	> 20 µM	> 20	> 20000	467 ± 15	nanomolar range	
COc1cc2c(cc1OCCCN1CCC(CO)C1)N=C(N)C21CCCC1 (stereo not shown) [1u]	1250 nM	> 20000 nM	> 20 µM	> 20	> 20000	1250 ± 50		
